Test system: Hep G2 hepatoma cells
Assay: Drymifolia leaf extract bioassay: cholesterol secretion by hepatoma cells (AMPLEX RED cholesterol kit)
Format: cell-based
Conditions: for activity at 25 µg/mL: HepG2, Conc. 25 μg/ml
Experimental: To measure cholesterol secretion by hepatoma cells following treatment by drymifolia leaf extract prepared in accordance with the present invention, a bioassay was performed. Samples for the bioassay were prepared by weighing out 100 mg of the spray dried powders of drymifolia leaf extracts. A 50 mg/ml total extract of the sample was then prepared by sequential addition of DMSO:ethanol:water in a ratio of 5:3:2. For example, for 100 mg of powder, 1 ml DMSO, 0.6 ml ethanol, and 0.4 ml water would be used. To prepare dilutions of sample for testing, the samples were diluted from the stock concentration of 50 mg/ml to test concentrations (i.e. 400, 200, 100 μg/ml) in tissue culture media. For the 400 μg/ml concentration, 8 μl of stock solution added to 992 μl tissue culture media would yield 400 μg/ml. From there, serial two fold dilutions would result in the remaining test concentration. Hep G2 hepatoma cells (ATCC, Manassas, Va.) were plated at 2×10^5/well in standard 24 well tissue culture plates. Following plating, the cells were incubated overnight. The next day, the media in the wells was aspirated and replaced with fresh media containing the diluted sample. Stock solutions of the samples were prepared as total extracts at 50 mg/ml. The samples were then diluted in tissue culture media just prior to adding to the cells. The cells were again incubated overnight with the samples. Then, the supernatant fluids were tested for the presence of cholesterol using the AMPLEX RED cholesterol kit (Molecular Probes, Eugene, Oreg.). The kit measures total cholesterol in the supernatants following enzymatic conversion of any cholesterol esters to free cholesterol using cholesterol esterase. The effect of the samples is calculated by dividing the mean relative fluorescence derived from the test samples by the mean relative fluorescence of untreated controls.
LIPITOR® and pure rutin samples were prepared in the same manner as the drymifolia leaf extract in the bioassay. The drymifolia leaf extract samples performed as well as or better than LIPITOR®. […] Pure rutin in the amount equivalent to the amount found in the lots 3193, 3194, 3811, and 3831 was tested. More specifically, the amount of rutin found in the lots was 3.44 mg/g, 4.36 mg/g, 4.42 mg/g and 4.13 mg/g, respectively. At the highest concentration of the drymifolia leaf extract samples tested (which was 400 ug/ml), there could be up to 25 ug/ml of rutin. Thus, the amount of pure rutin used in the bioassay was 3.125 to 25 ug/ml. […]

[1] = Homo sapiens, read-out: % ctrl (cholesterol release)

Row | SMILES | Mean (relative fluorescence, cholesterol release) (Conc. 25 μg/ml) | Mean (relative fluorescence, cholesterol release) (Conc. 50 μg/ml) | Mean (relative fluorescence, cholesterol release) (Conc. 100 μg/ml) | Mean (relative fluorescence, cholesterol release) (Conc. 200 μg/ml) | activity at 25 µg/mL [1] [%] | activity at 50 µg/mL (Homo sapiens, HepG2, Conc. 50 μg/ml, read-out: % ctrl (cholesterol release)) [%] | activity at 100 µg/mL (Homo sapiens, HepG2, Conc. 100 μg/ml, read-out: % ctrl (cholesterol release)) [%] | activity at 200 µg/mL (Homo sapiens, HepG2, Conc. 200 μg/ml, read-out: % ctrl (cholesterol release)) [%] | Mean (relative fluorescence, cholesterol release) (Conc. 3.125 μg/ml) | Mean (relative fluorescence, cholesterol release) (Conc. 6.25 μg/ml) | Mean (relative fluorescence, cholesterol release) (Conc. 12.5 μg/ml) | activity at 3.125 µg/mL (Homo sapiens, HepG2, Conc. 3.125 μg/ml, read-out: % ctrl (cholesterol release)) [%] | activity at 6.25 µg/mL (Homo sapiens, HepG2, Conc. 6.25 μg/ml, read-out: % ctrl (cholesterol release)) [%] | activity at 12.5 µg/mL (Homo sapiens, HepG2, Conc. 12.5 μg/ml, read-out: % ctrl (cholesterol release)) [%]
1 | CC(C)c1c(C(=O)Nc2ccccc2)c(-c2ccccc2)c(-c2ccc(F)cc2)n1CC[C@@H](O)C[C@@H](O)CC(=O)O [LIPITOR ®, atorvastatin] | 18308.5 | 18591 | 16871.5 | 16378 | 99.2 | 101 | 91.5 | 88.8 |  |  |  |  |  | 
2 | C[C@@H]1O[C@@H](OC[C@H]2O[C@@H](Oc3c(-c4ccc(O)c(O)c4)oc4cc(O)cc(O)c4c3=O)[C@H](O)[C@@H](O)[C@@H]2O)[C@H](O)[C@H](O)[C@H]1O [Pure Rutin, rutin] | 16817.5 |  |  |  | 91.2 |  |  |  | 18609.5 | 19069 | 17835 | 101 | 103 | 96.7

— patent US20050208163A1, “Compositions containing avocado leaf extract for lowering cholesterol levels” (priority 2002, published 2005)
